Measured values as given in the kinase profiling compilation of Christmann-Franck et al. (2016).

What was measured:
Test in all cases: Caliper, Mobility shift assay off-chip
[1] = system: ABL1 (human), P00519 [T315I]
ABL2 (human) = ABL2 (human) (UniProt P42684)
AKT3 (human) = AKT3 (human) (UniProt Q9Y243)
BRSK1 (human) = BRSK1 (human) (UniProt Q8TDC3)
BRSK2 (human) = BRSK2 (human) (UniProt Q8IWQ3)
CHEK1 (human) = CHEK1 (human) (UniProt O14757)
DCLK2 (human) = DCLK2 (human) (UniProt Q8N568)
[2] = system: FGFR2 (human), P21802 [N549H]
FGFR3 (human) = FGFR3 (human) (UniProt P22607); settings: compound 0.1 µM
GSK3B (human) = GSK3B (human) (UniProt P49841)
HCK (human) = HCK (human) (UniProt P08631)
IGF1R (human) = IGF1R (human) (UniProt P08069)
IKBKB (human) = IKBKB (human) (UniProt O14920)
INSR (human) = INSR (human) (UniProt P06213)
KDR (human) = KDR (human) (UniProt P35968)
MAPK12 (human) = MAPK12 (human) (UniProt P53778)
MAPK14 (human) = MAPK14 (human) (UniProt Q16539)
MAPK3 (human) = MAPK3 (human) (UniProt P27361)
MAPKAPK3 (human) = MAPKAPK3 (human) (UniProt Q16644)
MAPKAPK5 (human) = MAPKAPK5 (human) (UniProt Q8IW41)
MARK2 (human) = MARK2 (human) (UniProt Q7KZI7)
MARK3 (human) = MARK3 (human) (UniProt P27448)
PIM1 (human) = PIM1 (human) (UniProt P11309)
PIM2 (human) = PIM2 (human) (UniProt Q9P1W9)
PRKACA (human) = PRKACA (human) (UniProt P17612)
PRKCA (human) = PRKCA (human) (UniProt P17252)
PRKCB1 (human) = PRKCB1 (human) (UniProt P05771); settings: compound 1.0 µM
PRKCZ (human) = PRKCZ (human) (UniProt Q05513)
PRKD2 (human) = PRKD2 (human) (UniProt Q9BZL6)
RPS6KA4 KD1 KD2 (human) = RPS6KA4 KD1 KD2 (human) (UniProt O75676)
RPS6KB1 (human) = RPS6KB1 (human) (UniProt P23443)
SGK1 (human) = SGK1 (human) (UniProt O00141)
SGK3 (human) = SGK3 (human) (UniProt Q96BR1)
SRC (human) = SRC (human) (UniProt P12931)
SRC (human), sequence (P12931 whole entry, looked up): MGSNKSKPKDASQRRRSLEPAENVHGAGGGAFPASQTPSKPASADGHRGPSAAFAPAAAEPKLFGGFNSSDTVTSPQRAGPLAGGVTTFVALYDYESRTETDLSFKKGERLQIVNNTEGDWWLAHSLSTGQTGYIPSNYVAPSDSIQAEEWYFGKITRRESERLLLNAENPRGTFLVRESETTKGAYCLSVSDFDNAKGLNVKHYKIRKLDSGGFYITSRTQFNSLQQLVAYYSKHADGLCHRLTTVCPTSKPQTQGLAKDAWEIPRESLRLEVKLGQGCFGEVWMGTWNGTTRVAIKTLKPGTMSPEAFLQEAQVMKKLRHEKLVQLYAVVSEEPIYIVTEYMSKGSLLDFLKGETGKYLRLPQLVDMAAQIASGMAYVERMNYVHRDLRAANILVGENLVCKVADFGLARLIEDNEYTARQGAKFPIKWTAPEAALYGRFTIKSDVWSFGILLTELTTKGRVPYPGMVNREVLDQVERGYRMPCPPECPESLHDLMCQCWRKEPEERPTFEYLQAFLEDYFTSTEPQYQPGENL

PRKCZ (human), sequence (Q05513 whole entry, looked up): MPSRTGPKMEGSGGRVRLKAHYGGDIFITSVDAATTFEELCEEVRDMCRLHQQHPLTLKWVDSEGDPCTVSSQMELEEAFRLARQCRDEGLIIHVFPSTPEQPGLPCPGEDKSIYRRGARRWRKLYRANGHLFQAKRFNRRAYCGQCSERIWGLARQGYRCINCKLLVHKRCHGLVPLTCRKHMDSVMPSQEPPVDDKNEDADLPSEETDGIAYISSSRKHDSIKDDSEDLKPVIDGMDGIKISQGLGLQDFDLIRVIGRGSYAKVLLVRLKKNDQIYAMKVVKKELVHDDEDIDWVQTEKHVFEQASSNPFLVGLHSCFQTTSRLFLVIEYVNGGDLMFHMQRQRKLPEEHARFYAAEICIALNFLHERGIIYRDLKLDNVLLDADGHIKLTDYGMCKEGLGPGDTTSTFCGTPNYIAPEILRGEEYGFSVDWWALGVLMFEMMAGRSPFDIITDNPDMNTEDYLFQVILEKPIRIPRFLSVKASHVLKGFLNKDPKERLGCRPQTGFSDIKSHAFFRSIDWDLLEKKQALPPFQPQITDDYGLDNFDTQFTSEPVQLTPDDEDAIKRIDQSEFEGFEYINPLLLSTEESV
IKBKB (human), sequence (O14920 whole entry, looked up): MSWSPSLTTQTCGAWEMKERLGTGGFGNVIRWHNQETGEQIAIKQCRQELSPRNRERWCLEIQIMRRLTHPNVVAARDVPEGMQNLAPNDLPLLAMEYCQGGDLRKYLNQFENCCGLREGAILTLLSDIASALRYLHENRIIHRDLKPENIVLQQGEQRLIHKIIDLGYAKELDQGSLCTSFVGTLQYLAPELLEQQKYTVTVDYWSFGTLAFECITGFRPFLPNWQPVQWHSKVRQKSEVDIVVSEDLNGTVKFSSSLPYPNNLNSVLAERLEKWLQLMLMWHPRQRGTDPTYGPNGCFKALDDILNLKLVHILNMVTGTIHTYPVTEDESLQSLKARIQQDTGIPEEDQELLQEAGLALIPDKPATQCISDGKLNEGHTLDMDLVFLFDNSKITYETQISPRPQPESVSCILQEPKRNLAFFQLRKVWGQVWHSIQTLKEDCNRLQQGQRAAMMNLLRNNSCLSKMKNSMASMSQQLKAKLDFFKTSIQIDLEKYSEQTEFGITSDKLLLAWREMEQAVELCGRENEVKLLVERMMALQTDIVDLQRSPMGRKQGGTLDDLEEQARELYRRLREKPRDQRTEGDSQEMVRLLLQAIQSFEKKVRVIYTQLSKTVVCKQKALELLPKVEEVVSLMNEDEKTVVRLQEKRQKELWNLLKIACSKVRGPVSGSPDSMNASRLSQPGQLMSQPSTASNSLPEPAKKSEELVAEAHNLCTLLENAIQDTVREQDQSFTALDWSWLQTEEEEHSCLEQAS
ABL2 (human), sequence (P42684 whole entry, looked up): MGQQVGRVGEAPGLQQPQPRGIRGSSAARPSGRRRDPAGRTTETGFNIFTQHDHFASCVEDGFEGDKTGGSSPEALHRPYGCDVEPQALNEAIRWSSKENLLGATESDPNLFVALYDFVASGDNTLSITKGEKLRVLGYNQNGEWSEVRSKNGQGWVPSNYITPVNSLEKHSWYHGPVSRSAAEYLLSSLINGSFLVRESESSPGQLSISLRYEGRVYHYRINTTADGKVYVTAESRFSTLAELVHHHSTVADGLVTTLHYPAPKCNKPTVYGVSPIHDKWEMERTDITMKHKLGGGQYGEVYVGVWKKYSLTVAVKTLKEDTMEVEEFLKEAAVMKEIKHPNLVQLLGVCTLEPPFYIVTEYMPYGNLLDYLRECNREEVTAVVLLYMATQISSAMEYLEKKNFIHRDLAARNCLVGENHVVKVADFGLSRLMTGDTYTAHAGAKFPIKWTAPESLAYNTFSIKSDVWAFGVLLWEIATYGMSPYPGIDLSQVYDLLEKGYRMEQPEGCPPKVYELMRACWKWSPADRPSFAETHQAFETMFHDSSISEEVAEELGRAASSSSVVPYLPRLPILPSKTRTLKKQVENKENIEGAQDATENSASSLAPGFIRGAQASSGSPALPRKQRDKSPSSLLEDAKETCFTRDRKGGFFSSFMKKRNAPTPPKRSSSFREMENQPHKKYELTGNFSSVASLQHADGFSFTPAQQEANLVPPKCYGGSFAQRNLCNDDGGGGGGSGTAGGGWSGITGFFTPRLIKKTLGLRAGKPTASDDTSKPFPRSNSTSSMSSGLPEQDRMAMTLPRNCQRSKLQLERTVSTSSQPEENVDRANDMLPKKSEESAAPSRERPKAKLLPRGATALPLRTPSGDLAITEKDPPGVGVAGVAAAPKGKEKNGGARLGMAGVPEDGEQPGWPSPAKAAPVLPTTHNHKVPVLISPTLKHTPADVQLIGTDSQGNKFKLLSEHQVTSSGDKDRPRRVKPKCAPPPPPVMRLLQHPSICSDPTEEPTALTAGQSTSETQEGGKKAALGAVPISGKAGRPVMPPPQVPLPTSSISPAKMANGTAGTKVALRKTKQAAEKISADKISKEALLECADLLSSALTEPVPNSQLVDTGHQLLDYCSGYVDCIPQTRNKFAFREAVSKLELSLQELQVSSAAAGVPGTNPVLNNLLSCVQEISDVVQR
HCK (human), sequence (P08631 whole entry, looked up): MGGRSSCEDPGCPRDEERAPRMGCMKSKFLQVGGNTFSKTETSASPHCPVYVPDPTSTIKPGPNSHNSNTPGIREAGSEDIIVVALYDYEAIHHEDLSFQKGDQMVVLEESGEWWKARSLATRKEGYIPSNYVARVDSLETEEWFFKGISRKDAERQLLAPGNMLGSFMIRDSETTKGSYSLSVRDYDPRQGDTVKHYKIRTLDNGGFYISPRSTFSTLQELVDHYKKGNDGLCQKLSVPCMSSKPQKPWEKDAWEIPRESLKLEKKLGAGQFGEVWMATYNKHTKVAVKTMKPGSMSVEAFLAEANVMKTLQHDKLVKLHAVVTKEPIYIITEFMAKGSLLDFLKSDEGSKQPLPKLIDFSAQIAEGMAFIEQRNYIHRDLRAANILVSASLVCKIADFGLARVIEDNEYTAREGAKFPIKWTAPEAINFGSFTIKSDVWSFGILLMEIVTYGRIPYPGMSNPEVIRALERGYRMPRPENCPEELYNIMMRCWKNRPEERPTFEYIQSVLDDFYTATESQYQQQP
PRKD2 (human), sequence (Q9BZL6 whole entry, looked up): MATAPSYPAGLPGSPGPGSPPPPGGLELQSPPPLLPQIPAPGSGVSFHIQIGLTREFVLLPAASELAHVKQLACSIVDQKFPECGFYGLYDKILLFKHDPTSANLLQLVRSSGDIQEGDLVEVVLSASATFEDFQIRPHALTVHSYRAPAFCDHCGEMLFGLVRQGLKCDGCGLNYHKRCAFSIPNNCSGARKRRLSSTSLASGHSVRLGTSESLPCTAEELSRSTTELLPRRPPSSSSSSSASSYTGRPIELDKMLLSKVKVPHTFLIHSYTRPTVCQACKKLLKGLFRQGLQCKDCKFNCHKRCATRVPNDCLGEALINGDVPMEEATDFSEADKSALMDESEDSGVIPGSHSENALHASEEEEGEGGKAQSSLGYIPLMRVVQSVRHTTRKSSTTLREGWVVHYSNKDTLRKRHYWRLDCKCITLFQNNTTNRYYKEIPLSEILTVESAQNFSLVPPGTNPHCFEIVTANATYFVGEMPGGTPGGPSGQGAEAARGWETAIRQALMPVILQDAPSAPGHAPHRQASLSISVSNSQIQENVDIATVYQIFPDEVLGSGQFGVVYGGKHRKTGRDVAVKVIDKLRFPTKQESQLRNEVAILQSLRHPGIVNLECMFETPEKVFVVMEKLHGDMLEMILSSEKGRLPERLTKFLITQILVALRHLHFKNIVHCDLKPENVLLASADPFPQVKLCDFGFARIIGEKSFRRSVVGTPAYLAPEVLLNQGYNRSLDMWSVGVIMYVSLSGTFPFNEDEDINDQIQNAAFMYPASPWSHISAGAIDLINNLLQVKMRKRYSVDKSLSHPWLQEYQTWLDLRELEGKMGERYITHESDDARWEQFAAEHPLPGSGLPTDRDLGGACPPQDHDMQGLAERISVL
SGK1 (human), sequence (O00141 whole entry, looked up): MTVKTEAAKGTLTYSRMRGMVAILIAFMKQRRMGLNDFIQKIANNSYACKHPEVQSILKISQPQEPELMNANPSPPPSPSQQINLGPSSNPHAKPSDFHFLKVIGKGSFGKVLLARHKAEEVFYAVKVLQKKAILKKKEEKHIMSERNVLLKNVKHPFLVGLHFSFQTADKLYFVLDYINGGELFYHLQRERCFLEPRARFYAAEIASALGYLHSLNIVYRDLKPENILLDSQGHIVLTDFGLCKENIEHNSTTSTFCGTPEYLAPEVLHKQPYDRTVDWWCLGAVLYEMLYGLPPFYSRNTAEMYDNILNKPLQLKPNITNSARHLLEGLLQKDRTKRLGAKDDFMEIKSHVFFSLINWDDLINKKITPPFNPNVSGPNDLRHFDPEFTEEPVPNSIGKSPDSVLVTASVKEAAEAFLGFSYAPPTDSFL

Molecule `Cn1cc(-c2cnc3ccc4ccc(CS(=O)(=O)CCc5ccccn5)cc4c(=O)c3c2)cn1` has an inhibition ([1]; compound 0.1 µM) of 7.1%, an inhibition ([1]; compound 1.0 µM) of 4.4% and an inhibition (ABL2 (human); compound 0.1 µM) of -5.3%. The inhibition (ABL2 (human); compound 1.0 µM) was 6.8%, the inhibition (AKT3 (human); compound 0.1 µM) was 6.4% and the inhibition (AKT3 (human); compound 1.0 µM) was -5.8%. For the same molecule, the inhibition (BRSK1 (human); compound 0.1 µM) was -11.7%, the inhibition (BRSK1 (human); compound 1.0 µM) was 0.3% and the inhibition (BRSK2 (human); compound 0.1 µM) was 1.5%. For the same molecule, the inhibition (BRSK2 (human); compound 1.0 µM) was 2.5%, the inhibition (CHEK1 (human); compound 0.1 µM) was 2% and the inhibition (CHEK1 (human); compound 1.0 µM) was 2.5%. For the same molecule, the inhibition (DCLK2 (human); compound 0.1 µM) was -6.4%, the inhibition (DCLK2 (human); compound 1.0 µM) was -2.5% and the inhibition ([2]; compound 0.1 µM) was 5.5%. For the same molecule, the inhibition ([2]; compound 1.0 µM) was 15.5%, the inhibition (FGFR3 (human)) was 34.5% and the inhibition (GSK3B (human); compound 0.1 µM) was -3.5%. It also gave an inhibition (GSK3B (human); compound 1.0 µM) of 3%, an inhibition (HCK (human); compound 0.1 µM) of -5.1% and an inhibition (HCK (human); compound 1.0 µM) of 1.6%. The inhibition (IGF1R (human); compound 0.1 µM) was -23.8%, the inhibition (IGF1R (human); compound 1.0 µM) was -10% and the inhibition (IKBKB (human); compound 0.1 µM) was 1.4%. For the same molecule, the inhibition (IKBKB (human); compound 1.0 µM) was -1.2%, the inhibition (INSR (human); compound 0.1 µM) was 1.4% and the inhibition (INSR (human); compound 1.0 µM) was 3.5%. It also gave an inhibition (KDR (human); compound 0.1 µM) of 7.9%, an inhibition (KDR (human); compound 1.0 µM) of 28.2% and an inhibition (MAPK12 (human); compound 0.1 µM) of -6.6%. For the same molecule, the inhibition (MAPK12 (human); compound 1.0 µM) was 0.8%, the inhibition (MAPK14 (human); compound 0.1 µM) was 5.3% and the inhibition (MAPK14 (human); compound 1.0 µM) was -2.7%. The inhibition (MAPK3 (human); compound 0.1 µM) was -10.8%, the inhibition (MAPK3 (human); compound 1.0 µM) was -1.3% and the inhibition (MAPKAPK3 (human); compound 0.1 µM) was 1.8%. For the same molecule, the inhibition (MAPKAPK3 (human); compound 1.0 µM) was -5.4%, the inhibition (MAPKAPK5 (human); compound 0.1 µM) was -20.9% and the inhibition (MAPKAPK5 (human); compound 1.0 µM) was 4.4%. It also gave an inhibition (MARK2 (human); compound 0.1 µM) of -1.3%, an inhibition (MARK2 (human); compound 1.0 µM) of 6.5% and an inhibition (MARK3 (human); compound 0.1 µM) of -7.9%. It also gave an inhibition (MARK3 (human); compound 1.0 µM) of -4.1%, an inhibition (PIM1 (human); compound 0.1 µM) of -3.6% and an inhibition (PIM1 (human); compound 1.0 µM) of -16.7%. For the same molecule, the inhibition (PIM2 (human); compound 0.1 µM) was -2.1%, the inhibition (PIM2 (human); compound 1.0 µM) was 4.7% and the inhibition (PRKACA (human); compound 0.1 µM) was -13.6%. For the same molecule, the inhibition (PRKACA (human); compound 1.0 µM) was 2.4%, the inhibition (PRKCA (human); compound 0.1 µM) was 21.9% and the inhibition (PRKCA (human); compound 1.0 µM) was -3%. It also gave an inhibition (PRKCB1 (human)) of 0.9%, an inhibition (PRKCZ (human); compound 0.1 µM) of 3.2% and an inhibition (PRKCZ (human); compound 1.0 µM) of 6.8%. For the same molecule, the inhibition (PRKD2 (human); compound 0.1 µM) was -8.3%, the inhibition (PRKD2 (human); compound 1.0 µM) was -3.5% and the inhibition (RPS6KA4 KD1 KD2 (human); compound 0.1 µM) was -2.5%. The inhibition (RPS6KA4 KD1 KD2 (human); compound 1.0 µM) was -1.8%, the inhibition (RPS6KB1 (human); compound 0.1 µM) was -19.5% and the inhibition (RPS6KB1 (human); compound 1.0 µM) was -2.1%. It also gave an inhibition (SGK1 (human); compound 0.1 µM) of 1.7%, an inhibition (SGK1 (human); compound 1.0 µM) of -6.4% and an inhibition (SGK3 (human); compound 0.1 µM) of -10.4%. It also gave an inhibition (SGK3 (human); compound 1.0 µM) of 6.2%, an inhibition (SRC (human); compound 0.1 µM) of -0.3% and an inhibition (SRC (human); compound 1.0 µM) of 4.8%.
